Assay results from patent US20260206753A1, “HERBICIDAL DERIVATIVES” (SYNGENTA CROP PROTECTION AG, priority 2022, published 2026).

Experiments:
Type in all cases: in vivo
[1] = test system: Zea mays (ZEAMX); assay: Pre-emergence herbicide test, glasshouse pots; conditions: 1000 g/ha, evaluated after 13 days
[2] = test system: Ipomoea hederacea (IPOHE); assay: Pre-emergence herbicide test, glasshouse pots; conditions: 1000 g/ha, evaluated after 13 days
[3] = test system: Amaranthus retoflexus (AMARE); assay: Pre-emergence herbicide test, glasshouse pots; conditions: 1000 g/ha, evaluated after 13 days
[4] = test system: Amaranthus palmeri (AMAPA); assay: Pre-emergence herbicide test, glasshouse pots; conditions: 1000 g/ha, evaluated after 13 days
[5] = test system: Echinochloa crus-galli (ECHCG); assay: Post-emergence herbicide test, glasshouse pots; conditions: sprayed after 8 days cultivation, 1000 g/ha, evaluated after 13 days
Procedure: (§1) Seeds of a variety of test species are sown in standard soil in pots (Setaria faberi (SETFA), Echinochloa crus-galli (ECHCG), Ipomoea hederacea (IPOHE), Amaranthus palmeri (AMAPA), Zea mays (ZEAMX), Amaranthus retoflexus (AMARE), Solanum nigrum (SOLNI), Lolium perenne (LOLPE), Abutilon theophrasti (ABUTH)). After 8 days cultivation under controlled conditions in a glasshouse (at 24° C./16° C., day/night; 14 hours light; 65% humidity), the plants are sprayed with an aqueous spray solution derived from the formulation of the technical active ingredient in acetone/water (50:50) solution containing 0.5% Tween 20 (polyoxyethelyene sorbitan monolaurate, CAS RN 9005-64-5). Compounds are applied at 1000 g/ha unless otherwise stated. The test plants are then grown in a glasshouse under controlled conditions in a glasshouse (at 24° C./16° C., day/night; 14 hours light; 65% humidity) and watered twice daily. After 13 days the test is evaluated for the percentage damage caused to the plant. The biological activities are shown in the following table on a five-point scale (5=81-100%; 4=61-80%; 3=41-60%; 2=21-40%; 1=0-20%).

[6] = test system: Zea mays (ZEAMX); assay: Post-emergence herbicide test, glasshouse pots; conditions: sprayed after 8 days cultivation, 1000 g/ha, evaluated after 13 days
Procedure: as §1

[7] = test system: Amaranthus retoflexus (AMARE); assay: Post-emergence herbicide test, glasshouse pots; conditions: sprayed after 8 days cultivation, 1000 g/ha, evaluated after 13 days
Procedure: as §1

[8] = test system: Setaria faberi (SETFA); assay: Post-emergence herbicide test, glasshouse pots; conditions: sprayed after 8 days cultivation, 1000 g/ha, evaluated after 13 days
Procedure: as §1

[9] = test system: Amaranthus palmeri (AMAPA); assay: Post-emergence herbicide test, glasshouse pots; conditions: sprayed after 8 days cultivation, 1000 g/ha, evaluated after 13 days
Procedure: as §1

[10] = test system: Ipomoea hederacea (IPOHE); assay: Post-emergence herbicide test, glasshouse pots; conditions: sprayed after 8 days cultivation, 1000 g/ha, evaluated after 13 days
Procedure: as §1

[11] = test system: Echinochloa crus-galli (ECHCG); assay: Pre-emergence herbicide test, glasshouse pots; conditions: 1000 g/ha, evaluated after 13 days
[12] = test system: Setaria faberi (SETFA); assay: Pre-emergence herbicide test, glasshouse pots; conditions: 1000 g/ha, evaluated after 13 days

| Structure (SMILES) | ZEAMX, percentage damage caused to the plant (five-point scale) [1] | IPOHE, percentage damage caused to the plant (five-point scale) [2] | AMARE, percentage damage caused to the plant (five-point scale) [3] | AMAPA, percentage damage caused to the plant (five-point scale) [4] | ECHCG, percentage damage caused to the plant (five-point scale) [5] | ZEAMX, percentage damage caused to the plant (five-point scale) [6] | AMARE, percentage damage caused to the plant (five-point scale) [7] | SEFTA, percentage damage caused to the plant (five-point scale) [8] | AMAPA, percentage damage caused to the plant (five-point scale) [9] | IPOHE, percentage damage caused to the plant (five-point scale) [10] | ECHCG, percentage damage caused to the plant (five-point scale) [11] | SEFTA, percentage damage caused to the plant (five-point scale) [12] |
| --- | --- | --- | --- | --- | --- | --- | --- | --- | --- | --- | --- | --- |
| CCn1cc(-c2ccc(Cl)cc2F)c(=O)c(C(=O)O)c1-c1ccc(Cl)c(Cl)c1 [Compound 2, 5-(4-chloro-2-fluoro-phenyl)-2-(3,4-dichlorophenyl)-1-ethyl-4-oxo-pyridine-3-carboxylic acid] | 3 (3=41-60%) | 3 (3=41-60%) | 1 (1=0-20%) | 5 (5=81-100%) | 4 (4=61-80%) | 4 (4=61-80%) | 4 (4=61-80%) | 4 (4=61-80%) | 5 (5=81-100%) | 3 (3=41-60%) | 5 (5=81-100%) | 5 (5=81-100%) |
| CCn1cc(-c2ccc(Cl)cc2)c(=O)c(C(=O)O)c1-c1ccc(Cl)c(Cl)c1 [Compound 1, 5-(4-chlorophenyl)-2-(3,4-dichlorophenyl)-1-ethyl-4-oxo-pyridine-3-carboxylic acid] | 1 (1=0-20%) | 3 (3=41-60%) | 0 | 1 (1=0-20%) | 4 (4=61-80%) | 3 (3=41-60%) | 3 (3=41-60%) | 4 (4=61-80%) | 3 (3=41-60%) | 3 (3=41-60%) | 5 (5=81-100%) | 5 (5=81-100%) |
| CCn1cc(-c2cc(C(=O)OC(C)C)ccc2F)c(=O)c(C(=O)O)c1-c1ccc(Cl)c(Cl)c1 [Compound 8, 2-(3,4-dichlorophenyl)-1-ethyl-5-(2-fluoro-5-isopropoxycarbonyl-phenyl)-4-oxo-pyridine-3-carboxylic acid] | 1 (1=0-20%) | 1 (1=0-20%) | 3 (3=41-60%) | 5 (5=81-100%) | 3 (3=41-60%) | 3 (3=41-60%) | 3 (3=41-60%) | 4 (4=61-80%) | 3 (3=41-60%) | 3 (3=41-60%) | 5 (5=81-100%) | 5 (5=81-100%) |
| CCn1cc(-c2cccc(OC(F)(F)F)c2F)c(=O)c(C(=O)O)c1-c1ccc(Cl)c(Cl)c1 [Compound 11, 2-(3,4-dichlorophenyl)-1-ethyl-5-[2-fluoro-3-(trifluoromethoxy)phenyl]-4-oxo-pyridine-3-carboxylic acid] | 0 | 3 (3=41-60%) | 2 (2=21-40%) | 2 (2=21-40%) | 4 (4=61-80%) | 1 (1=0-20%) | 4 (4=61-80%) | 2 (2=21-40%) | 4 (4=61-80%) | 3 (3=41-60%) | 3 (3=41-60%) | 3 (3=41-60%) |
| CCn1cc(-c2cc(OC(F)(F)F)ccc2F)c(=O)c(C(=O)O)c1-c1ccc(Cl)c(Cl)c1 [Compound 5, 2-(3,4-dichlorophenyl)-1-ethyl-5-[2-fluoro-5-(trifluoromethoxy)phenyl]-4-oxo-pyridine-3-carboxylic acid] | 4 (4=61-80%) | 4 (4=61-80%) | 3 (3=41-60%) | 4 (4=61-80%) | 4 (4=61-80%) | 4 (4=61-80%) | 4 (4=61-80%) | 4 (4=61-80%) | 4 (4=61-80%) | 4 (4=61-80%) | 5 (5=81-100%) | 5 (5=81-100%) |
| CCn1cc(-c2cc(C(=O)OC(C)C)c(Cl)cc2F)c(=O)c(C(=O)O)c1-c1ccc(Cl)c(Cl)c1 [Compound 6, 5-(4-chloro-2-fluoro-5-isopropoxycarbonyl-phenyl)-2-(3,4-dichlorophenyl)-1-ethyl-4-oxo-pyridine-3-carboxylic acid] | 5 (5=81-100%) | 4 (4=61-80%) | 5 (5=81-100%) | 5 (5=81-100%) | 5 (5=81-100%) | 4 (4=61-80%) | 5 (5=81-100%) | 5 (5=81-100%) | 5 (5=81-100%) | 3 (3=41-60%) | 5 (5=81-100%) | 5 (5=81-100%) |
| CCn1cc(-c2cc(OC(F)(F)F)ccc2Cl)c(=O)c(C(=O)O)c1-c1ccc(Cl)c(Cl)c1 [Compound 7, 5-[2-chloro-5-(trifluoromethoxy)phenyl]-2-(3,4-dichlorophenyl)-1-ethyl-4-oxo-pyridine-3-carboxylic acid] | 3 (3=41-60%) | 1 (1=0-20%) | 4 (4=61-80%) | 3 (3=41-60%) | 4 (4=61-80%) | 3 (3=41-60%) | 4 (4=61-80%) | 5 (5=81-100%) | 4 (4=61-80%) | 3 (3=41-60%) | 4 (4=61-80%) | 5 (5=81-100%) |
